# Data: PMC9781916, “Antipsychotic- and Anxiolytic-like Properties of a Multimodal Compound JJGW08 in Rodents” (International Journal of Molecular Sciences, 2022)
# Key:
# [1] = molecular target: human serotonin 5-HT7 receptor (Homo sapiens, UniProt P34969); assay: Functional assay (cAMP, TR-FRET) in CHO-K1 cells, 5-HT7 receptor
# Method: Test and reference compounds were dissolved in DMSO at a concentration of 1 mM. Serial dilutions were prepared in a 96-well microplate in assay buffer, and 8 to 10 concentrations were tested. […] A functional assay based on cells expressing the human 5-HT7 receptor was performed according to the previously described protocol [16, 45]. CHO-K1 cells were transfected with a beta-lactamase (bla) reporter gene under the control of the cyclic AMP response element (CRE) (Life Technologies, Carlsbad, CA, USA).
# [2] = molecular target: T1, human serotonin 5-HT1A receptor (Homo sapiens, UniProt P08908); assay: Functional assay (aequorin, calcium mobilization) in CHO-K1 cells, 5-HT1A receptor; type: cell-based
# T1 construct: host or cells: CHO-K1
# T1 sequence (P08908 1-422): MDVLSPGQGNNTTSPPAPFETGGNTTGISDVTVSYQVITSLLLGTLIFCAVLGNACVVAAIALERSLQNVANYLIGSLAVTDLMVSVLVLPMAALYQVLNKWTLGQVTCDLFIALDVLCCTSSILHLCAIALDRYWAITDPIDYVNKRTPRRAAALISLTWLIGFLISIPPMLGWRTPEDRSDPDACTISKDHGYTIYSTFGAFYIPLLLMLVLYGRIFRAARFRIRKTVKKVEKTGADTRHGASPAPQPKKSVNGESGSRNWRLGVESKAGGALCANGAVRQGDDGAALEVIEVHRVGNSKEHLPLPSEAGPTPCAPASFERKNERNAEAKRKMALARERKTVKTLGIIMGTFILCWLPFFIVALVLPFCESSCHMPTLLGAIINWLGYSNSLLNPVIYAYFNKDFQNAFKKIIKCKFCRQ
# Method: Tested and reference compounds were dissolved in dimethyl sulfoxide (DMSO) at a concentration of 10 mM. Serial dilutions were prepared in a 96-well microplate in assay buffer, and 8 to 10 concentrations were tested. […] The assay was executed according to the previously described protocol [45]. After thawing, cells were transferred to assay buffer (DMEM/HAM’s F12 with 0.1% protease-free BSA) and centrifuged. The cell pellet was resuspended in assay buffer, and coelenterazine h was added at final concentrations of 5 µM. The cell suspension was incubated at 16 °C (or 21 °C), protected from light with constant agitation for 16 h (or 4 h), and then diluted with assay buffer to the concentration of 100,000 cells/mL (or 250,000 cells/mL). After 1 h of incubation, 50 µL of the cell’s suspension was dispensed using automatic injectors built into the radiometric and luminescence plate counter MicroBeta2 LumiJET (PerkinElmer, Waltham, NA, USA) into white opaque 96-well microplates preloaded with test compounds. Immediate light emission generated following calcium mobilization was recorded for 30 s. In antagonist mode, after 25–30 min of incubation, the reference agonist was added to the above assay mix, and light emission was re-recorded. […] IC50 and EC50 values were calculated.
# 5-HT7 receptors = system: 5-HT7 receptors; set-up: method as in doi:10.1016/j.molstruc.2022.134585; conditions: cited from earlier work
# mice [3] = assay: Catalepsy bar test in mice; type: in vivo
# Method: Catalepsy was assessed using the bar method described by Ueki et al. with minor modifications [48, 49]. The front paws of the mice were placed on a cylindrical metal bar located 4 cm above the tabletop’s surface, while the hind paws remained on the tabletop. The time in which the animal held both paws on the bar was measured at 30, 60, and 120 min after the administration of the tested compound, with a maximum measurement time of 60 s. Each of the measurements consisted of placing the animal’s paws on the bar three times unless the mouse was on it for 60 s; then, no further trial was performed.
# The minimum cataleptogenic dose was defined as the lowest dose inducing a mean catalepsy score of ≥1 at 30, 60, or 120 min post-treatment. The tested compound was administered ip at the dose range of 5–20 mg/kg.
# rats = assay: Prepulse inhibition test after MK-801 in rats; type: in vivo; conditions: 3.0–30 mg/kg ip, MK-801 0.6 mg/kg ip
# Method: Figure 5 The influence of JJGW08 on startle response inhibition (Panel (A)) and changes in startle response (Panel (B)) in prepulse inhibition test after MK-801 administration in rats. The test was conducted in the soundproof apparatus, and the startle response amplitude was recorded. The experimental session (after a 5-min habituation period) had strictly defined parameters (prepuls-and-pulse trials: 84/120–prepuls 84 dB (20 ms), pulse 120 dB (40 ms); 90/120–prepuls 90 dB (20 ms), pulse 120 dB (40 ms), sham stimulus (70 dB, 40 ms)), and the startle intensity for each stimulus used in the session was measured. JJGW08 was administered ip 30 min before the test, while MK-801 (0.6 mg/kg) was administered ip 15 min before the start of the experiment. The control group received 0.9% NaCl solution (ip) and MK-801 (0.6 mg/kg, ip). Values are expressed as mean ± SD, n = 7–8 rats per group. […]
# The study was conducted as described in detail by Acewicz and colleagues. […] Startle responses, reflecting the motion of animals in the cylinder following the acoustic stimulus, were detected by a piezoelectric transducer mounted below the frame. […] Sound levels in the chambers were measured and calibrated with a sound meter. […] Startle responses were measured for 100 ms after the onset of the last stimulus within each trial. […]
# mice [4] = assay: Rotarod test in mice; type: in vivo; conditions: for Animals That Fell from Rotating Rod: 30 min before test; for Time before Animals Fell: max 60 s, mean ± SD
# Method: Mice were trained on the rotarod apparatus (May Commat RR0711, Ankara, Turkey; rod diameter: 2 cm) for 3 consecutive days. During each training session, animals were placed for 3 min on the rotating rod (24 rpm, constant speed) with unlimited trials. The experiment was performed 24 h after the last training session. On the test day, mice were injected with studied compounds and, 30 min later, placed on the rotarod. The criterion of motor impairments was the inability of the animal to remain on the rotating rod for 60 s.
# [5] = 5-HT7, antagonist mode, 10 nM serotonin as reference agonist
# [6] = antagonist mode, 100 nM serotonin as reference agonist
# human serotonin 5-HT7 receptor, sequence (P34969 whole entry): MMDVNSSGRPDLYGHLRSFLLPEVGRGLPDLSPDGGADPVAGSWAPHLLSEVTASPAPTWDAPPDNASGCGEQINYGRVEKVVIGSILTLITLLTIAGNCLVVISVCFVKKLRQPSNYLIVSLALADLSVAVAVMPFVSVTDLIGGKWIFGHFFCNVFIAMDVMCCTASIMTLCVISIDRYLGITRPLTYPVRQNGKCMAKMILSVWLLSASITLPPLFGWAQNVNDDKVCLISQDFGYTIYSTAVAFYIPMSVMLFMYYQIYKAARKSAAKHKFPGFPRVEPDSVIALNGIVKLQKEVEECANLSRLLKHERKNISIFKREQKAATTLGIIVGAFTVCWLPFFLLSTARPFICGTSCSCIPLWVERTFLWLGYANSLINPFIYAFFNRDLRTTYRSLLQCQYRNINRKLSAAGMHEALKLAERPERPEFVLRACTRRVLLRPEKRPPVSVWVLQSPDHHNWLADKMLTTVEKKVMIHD
smiles,measurement,setting,value
"COc1ccccc1N1CCN(CCCCCOc2ccccc2C(N)=O)CC1.Cl [JJGW08, 2-{5-[4-(2-metoksyfenylo)piperazin-1-ylo]pentoxy}benzamide hydrochloride]",Agonist Mode Emax%,"[1]; 5-HT7, agonist mode",1%
same,Antagonist Mode Emax%,[1]; [5],4%
same,Antagonist Mode pIC50 ± Range,[1]; [5],6.4 ± 0.1
same,antagonistic properties (in words),[1]; 5-HT7 functional assay,very weak antagonistic properties
same,Kb,"[1]; read-out: Antagonist Mode Kb, 5-HT7, antagonist mode, Cheng equation",190 nM
same,Agonist Mode Emax%,[2]; agonist mode,9%
same,Antagonist Mode Emax%,[2]; [6],1%
same,Antagonist Mode pIC50 ± Range,[2]; [6],8.3 ± 0.1
same,affinity (in words),5-HT7 receptors,moderate affinity
same,Mean Score (catalepsy),"mice [3]; 5 mg/kg ip, 30 min",0.0
same,Mean Score (catalepsy),"mice [3]; 5 mg/kg ip, 60 min",0.2
same,Mean Score (catalepsy),"mice [3]; 5 mg/kg ip, 120 min",0.2
same,Mean Score (catalepsy),"mice [3]; 10 mg/kg ip, 30 min",0.7
same,Mean Score (catalepsy),"mice [3]; 10 mg/kg ip, 60 min",0.9
same,Mean Score (catalepsy),"mice [3]; 10 mg/kg ip, 120 min",1.4
same,cataleptogenic dose relative to the lowest antipsychotic-like dose,mice [3]; 10 mg/kg vs. 0.15 mg/kg,67 fold
same,Mean Score (catalepsy),"mice [3]; 20 mg/kg ip, 30 min",2.1
same,Mean Score (catalepsy),"mice [3]; 20 mg/kg ip, 60 min",2.1
same,Mean Score (catalepsy),"mice [3]; 20 mg/kg ip, 120 min",1.5
same,minimum (lowest) cataleptogenic dose,"mice [3]; ip, lowest dose with mean catalepsy score ≥1 at 30, 60 or 120 min",10 mg/kg
same,reversal of deficits in sensorimotor gating induced by MK-801 (in words),rats,did not reverse the deficits
same,startle reaction inhibition (%PPI),rats; prepulse 84 or 90 dB,−0.2 to 24.4%
same,TD50 relative to the lowest antipsychotic-like dose,mice [4],121 fold
same,Animals That Fell from Rotating Rod,mice [4]; 10 mg/kg ip,2/8
same,Time before Animals Fell,mice [4]; 10 mg/kg ip,58 ± 4 s
same,Animals That Fell from Rotating Rod,mice [4]; 20 mg/kg ip,4/8
same,Time before Animals Fell,mice [4]; 20 mg/kg ip,41 ± 24 s
same,Animals That Fell from Rotating Rod,mice [4]; 30 mg/kg ip,6/8
same,Time before Animals Fell,mice [4]; 30 mg/kg ip,20 ± 25 s
same,TD50,"mice [4]; ip, dose at which 50% of the animals could not stay on the rotating rod",18 (11–29) mg/kg
